Tested on: patients with refractory metastatic colorectal cancer (mCRC)
Assay: PFS, OS and disease control in the training (evaluation) cohort of refractory mCRC patients receiving TAS-102 (n=52, Japan), by baseline characteristics, SNP genotype and toxicity
Type: in vivo, human
Settings: for PFS HR (95% CI) / OS HR (95% CI) / OS HR (95% CI)† / PFS HR (95% CI) †: univariate; for OS HR (95% CI)‡ / PFS HR (95% CI) ‡: multivariable
Protocol: All patients underwent the treatment in salvage-line setting. […]
Genomic DNA was extracted from peripheral whole blood in patients of all cohorts using the QIAmp Kit (Qiagen, Valencia, Calif., USA) according to the manufacturer's protocol (www.qiagen.com). The candidate SNPs were genotyped using PCR-based direct DNA sequence analysis by ABI 3100A Capillary Genetic Analyzer and Sequencing Scanner v1.0 (Applied Biosystems). Amplification of extracted DNA was carried out using both forward and reverse primers for each gene polymorphism as shown in Table 1. […] The investigators analyzing SNPs were blinded to the clinical data of the study patients.
The primary endpoint in this study was progression-free survival (PFS), and the secondary endpoints were overall survival (OS) and disease control rate (DCR). PFS was calculated from the date of starting treatment to the first observation of disease progression or death from any cause. If a patient had no disease progression or death, PFS was censored at the date of last follow up. OS was calculated from the date of starting treatment until the date of death from any cause or the date of the last follow-up, at which point OS was censored. The disease control rate (DCR) was defined as the proportion of patients who achieved a stable disease (SD) or […] according to RECISTv1.1. Chi-square test was used to examine the difference in baseline patient characteristics among the three cohorts. Allelic distribution of all SNPs by ethnicity for deviation from Hardy-Weinberg equilibrium and the allelic frequencies of SNPs were tested using the Chi-square tests with one degree of freedom. The associations between candidate SNPs and disease control, and toxicities were examined using contingency tables and Fisher's exact test. The associations of SNPs with PFS and OS were analysed using Kaplan-Meier curves and the log-rank test. Because the true mode of inheritance of candidate SNPs was not established yet, a codominant or dominant genetic model if appropriate was considered.
All patients underwent the treatment in salvage-line setting. […] In all patients, adverse events were graded according to the Common Terminology Criteria for Adverse Events, version 4.0. […]
Genomic DNA was extracted from peripheral whole blood in patients of all cohorts using the QIAmp Kit (Qiagen, Valencia, Calif., USA) according to the manufacturer's protocol (www.qiagen.com). The candidate SNPs were tested using PCR-based direct DNA sequence analysis by ABI 3100A Capillary Genetic Analyzer and Sequencing Scanner v1.0 (Applied Biosystems). […] The investigators analyzing SNPs were blinded to the clinical data.
The primary endpoint in this study was progression-free survival (PFS), and the secondary endpoints were overall survival (OS) and disease control rate (DCR).

[1] = Evaluation cohort, Nausea grade <3
[2] = Evaluation cohort, Nausea grade ≥3
[3] = Evaluation cohort, Nausea grade ≥3 vs <3
[4] = Evaluation cohort, Neutropenia grade <3
[5] = Evaluation cohort, Neutropenia grade ≥3
[6] = Evaluation cohort, Neutropenia grade ≥3 vs <3
[7] = FANCD2 rs6792811 G/A and G/G grouped together
[8] = FANCD2 rs6792811 G/A and G/G grouped vs A/A

Substance: Trifluridine/tipiracil [TAS-102]
- PFS HR (95% CI) (Evaluation cohort, Leukopenia grade ≥3 vs <3): 0.93 (0.45, 1.90)
- OS median, months (95% CI) [1]: 8.1 (6.3, 14.8+) months
- PFS median, months (95% CI) [1]: 3.3 (2.3, 3.7) months
- OS median, months (95% CI) [2]: 5.7 (2.7, 12.4) months
- PFS median, months (95% CI) [2]: 1.9 (1.6, 2.7) months
- OS HR (95% CI) [3]: 1.58 (0.65, 3.83)
- PFS HR (95% CI) [3]: 1.24 (0.62, 2.49)
- OS median, months (95% CI) [4]: 6.3 (3.4, 15.6+) months
- PFS median, months (95% CI) [4]: 2.1 (1.8, 3.0) months
- OS median, months (95% CI) [5]: 8.3 (6.3, 14.8+) months
- PFS median, months (95% CI) [5]: 3.4 (1.8, 4.9) months
- OS HR (95% CI) [6]: 0.59 (0.24, 1.43)
- PFS HR (95% CI) [6]: 0.68 (0.37, 1.28)
- OS median, months (95% CI) (FANCD2 rs2272125 T/G): 7.2 (2.7, 7.8+) months
- PFS median, months (95% CI) (FANCD2 rs2272125 T/G): 2.8 (1.6, 6.6+) months
- OS HR (95% CI)‡ (FANCD2 rs2272125 T/G vs T/T): 1.38 (0.39, 4.90)
- PFS HR (95% CI) ‡ (FANCD2 rs2272125 T/G vs T/T): 0.91 (0.35, 2.35)
- OS HR (95% CI)† (FANCD2 rs2272125 T/G vs T/T): 1.66 (0.47, 5.83)
- PFS HR (95% CI) † (FANCD2 rs2272125 T/G vs T/T): 0.98 (0.38, 2.51)
- OS median, months (95% CI) (FANCD2 rs2272125 T/T): 8.3 (5.7, 15.6+) months
- PFS median, months (95% CI) (FANCD2 rs2272125 T/T): 2.7 (2.1, 3.4) months
- OS median, months (95% CI) (FANCD2 rs6792811 A/A): 8.7 (5.4, 14.8+) months
- PFS median, months (95% CI) (FANCD2 rs6792811 A/A): 2.9 (2.1, 4.2) months
- OS median, months (95% CI) [7]: 7.2 (3.3, 15.6+) months
- PFS median, months (95% CI) [7]: 2.1 (1.5, 3.4) months
- OS HR (95% CI)‡ [8]: 1.17 (0.48, 2.87)
- PFS HR (95% CI) ‡ [8]: 1.43 (0.74, 2.74)
- OS HR (95% CI)† [8]: 1.27 (0.52, 3.08)
- PFS HR (95% CI) † [8]: 1.29 (0.68, 2.47)
- Median OS (months) (JPN TAS-102 cohort, XRCC3 rs861539 G/G (n = 35)): 6.3 months
- OS median, months (95% CI) (PCNA rs25406 A/A): 8.7 (5.3, 10.7+) months
- PFS median, months (95% CI) (PCNA rs25406 A/A): 2.5 (1.4, 4.6) months
- OS HR (95% CI)‡ (PCNA rs25406 A/A vs G/G): 0.55 (0.17, 1.84)
- PFS HR (95% CI) ‡ (PCNA rs25406 A/A vs G/G): 0.65 (0.28, 1.51)
- OS HR (95% CI)† (PCNA rs25406 A/A vs G/G): 0.67 (0.21, 2.19)
- PFS HR (95% CI) † (PCNA rs25406 A/A vs G/G): 0.89 (0.39, 2.03)
- OS median, months (95% CI) (PCNA rs25406 Any A): 8.1 (5.7, 15.6+) months
- PFS median, months (95% CI) (PCNA rs25406 Any A): 3.3 (2.1, 3.5) months
- OS HR (95% CI)‡ (PCNA rs25406 Any A vs G/G): 0.54 (0.22, 1.35)
- PFS HR (95% CI) ‡ (PCNA rs25406 Any A vs G/G): 0.53 (0.27, 1.06)
- OS HR (95% CI)† (PCNA rs25406 Any A vs G/G): 0.64 (0.26, 1.56)
- PFS HR (95% CI) † (PCNA rs25406 Any A vs G/G): 0.74 (0.39, 1.42)
- OS median, months (95% CI) (PCNA rs25406 G/A): 8.1 (5.7, 15.6+) months
- PFS median, months (95% CI) (PCNA rs25406 G/A): 3.4 (1.9, 3.7) months
- OS HR (95% CI)‡ (PCNA rs25406 G/A vs G/G): 0.54 (0.19, 1.52)
- PFS HR (95% CI) ‡ (PCNA rs25406 G/A vs G/G): 0.46 (0.21, 1.02)

Source: patent US20190233884A1 (University of Southern California, priority 2016, published 2019)
